Where a name gives a salt, the structure may show the parent alone.
Experiments:
Human ARPE-19 cells [1] = assay: Light microscopy of cell morphology after TBHP challenge; type: cell-based
Experimental: FIG. 1B depicts cells alone (control). FIG. 1C depicts cells treated with 300 μM TBHP. FIG. 1D depicts cells treated with 0.9 μM of ciclopirox olamine.
FIG. 8B depicts cells alone (control). FIG. 8C depicts cells treated with 300 μM TBHP. FIG. 8D depicts cells treated with 0.6 μM compound 414.
Human ARPE-19 cells morphology was examined using phase contrast on a Zeiss 510 NLO confocal laser scanning microscope with a Plan-Apochromatic 20×0.8 DIC objective.

[2] = system: corneal endothelial cells; assay: TBHP-induced cell death in corneal endothelial cells; type: cell-based, cow; details: corneal endothelial cells (FIG. 18); 0.9 μM 24 h, then 300 μM TBHP 24 h
Experimental: Immortalized cow corneal endothelial cells (CRL-2048) obtained from the American Type Culture Collection (ATCC, Manassas, VA, USA) were cultured in Dulbecco's modified Eagle's medium (DMEM; Thermo Fisher Scientific, Waltham, MA) containing 10% fetal bovine serum (FBS), 100 IU/mL penicillin, 100 μg/mL streptomycin, 100 μg/mL gentamicin, and 2.5 μg/mL amphotericin B (Thermo Fisher Scientific). Human ARPE-19 cells were plated in 96-well plates for 24 hours in DMEM supplemented with FBS and antibiotics. ARPE-19 cells were preincubated with either ciclopirox olamine (Sigma), compound 414 (Chemical Diversity, San Diego, CA), compound 434 (Chemical Diversity) or no compound for 24 hours and then exposed to varying concentrations of tert-butyl hydroperoxide (TBHP; Sigma-Aldrich, St. Louis, MO) the next day for 24 hours. Cell viability was measured the following day by […] cell viability assay (Promega, Madison, WI) using a BioTek FLX800TM fluorescence reader (BioTek Winooski, VT). […] Protective effect of 0.9 μMciclopirox olamine on lens epithelial cells exposed to 300 μMTBHP.

C6 cells = assay: TBHP-induced cell death in C6 cells; type: cell-based; details: 0.9 μM 24 h preincubation, 400 μM TBHP 24 h
Experimental: (§1) FIG. 17 is a graph illustrating that Compound 414 and 434 protect various cell types from oxidative stress-induced cell death. Human ARPE-19, HUVEC, and C6 cells were preincubated with compound 414 and 434 for 24 hours, and then exposed to 400 μM tert-butyl hydroperoxide (TBHP) to induce cell death for 24 hours.
(§2) Human ARPE-19, HUVEC, and C6 cells were preincubated with compound 414 and 434 for 24 hours, and then exposed to 400 μM tert-butyl hydroperoxide (TBHP) to induce cell death for 24 hours.

HUVEC = assay: TBHP-induced cell death in HUVEC; type: cell-based, human; details: 0.9 μM 24 h preincubation, 400 μM TBHP 24 h
Experimental: as §1, §2

[3] = system: 661 W photoreceptor-derived cells; assay: TBHP-induced oxidative stress in 661 W photoreceptor-derived cells; type: cell-based, Murine; details: 24 h preincubation, then 300 μM TBHP 24 h, n=4
Experimental: As shown in FIGS. 20A-20B, compounds 414 and 434 protect 661 W photoreceptor-derived cells from tert-butyl […] oxidative stress. Retinal photoreceptor-derived cell line (661 W) were cultured until confluent in Dulbecco's modified eagle medium (DMEM) with 10% fetal bovine serum (FBS). Murine photoreceptor-derived cells were preincubated with 3 μMciclopirox olamine for 24 hours and then exposed to 300 μM tert-butyl hydroperoxide (TBHP) to induce cell death for 24 hours. […] Bar: standard error, n=4. student t-test was performed for statistical analysis.

Human ARPE-19 cells [4] = assay: Cell viability on nitrite-modified extracellular matrix; type: cell-based; details: 0.9 μM, 24 h
Experimental: To prepare the RPE ECM nitrite-treated plates, ARPE-19 cells were grown on 24-well Transwell permeable supports (Corning, Tewksbury, MA, USA) in 12-well plates for 6 to 8 weeks to allow for ECM formation. ARPE-19 cells were removed by the addition of 20 mM ammonium hydroxide buffer for 20 minutes, and the ECM was washed three times with phosphate-buffered saline (PBS). Phosphate-buffered saline was removed from the RPE-derived ECM (RPE-ECM), which was then allowed to dry. The RPE-derived ECM plates were either used immediately after drying, or stored at −20° C. for future use. RPE-derived ECM was processed further to create four experimental plating surfaces (untreated, nitrite modified, nitrite modified followed by washing, or nitrite modified followed by washing and coating with a mixture of ECM ligands).
Nitrite-modified ECM was prepared by adding 100 mM sodium nitrite to the ECM and incubating at 37° C. for 7 days. Plates were then washed at least four times with PBS and further incubated with PBS for 4 hours. Following this, the plates were washed at least two additional times to completely remove the nitrite.
Reactive nitrogen species (RNS) act together with reactive oxygen species (ROS) to damage cells, causing nitrosative stress. […]

Human ARPE-19 cells [5] = assay: CellTox Green cytotoxicity assay; type: cell-based; details: 0.9 μM 24 h
Experimental: FIG. 14 is a graph illustrating cytotoxicity level of the compounds in human retinal pigment epithelial (RPE) cells. Human ARPE-19 cells were preincubated with 0.9 μM of compound 414 or 434 for 24 hours and then exposed to 300 μM tert-butyl hydroperoxide (TBHP) for 24 hours. Cell toxicity was measured in human ARPE-19 cells after treatment with TBHP and compounds 414 and 434.
Human ARPE-19 or primary RPE were plated in 96-well plates for 24 hours in DMEM supplemented with FBS and antibiotics. ARPE-19 cells were incubated with compound (Chemical Diversity) or exposed to tert-butyl hydroperoxide (Sigma-Aldrich, St. Louis, MO) for 24 hours. Cell cytotoxicity was measured the following day by CellTox™ Green cytotoxicity assay (Promega, Madison, WI) using a BioTek FLx800™ fluorescence reader (BioTek, Winooski, VT).
After exposure to TBHP for 24 hours and treatment with compound 414 or 434 cytotoxicity levels were measured in human ARPE-19 cells (FIG. 14).

Structure (SMILES)	cell morphology after challenge with TBHP (Human ARPE-19 cells [1]; 0.9 μM ciclopirox olamine and 300 μM TBHP)	cell viability after exposure to TBHP [2]	protection from oxidative stress-induced cell death (C6 cells)	protection from oxidative stress-induced cell death (HUVEC)	cell viability after exposure to TBHP [3]	cell viability on nitrite-modified ECM (Human ARPE-19 cells [4])	cell morphology after challenge with TBHP (Human ARPE-19 cells [1]; 0.6 μM compound and 300 μM TBHP)	cytotoxicity, treatment with compound alone (Human ARPE-19 cells [5])
Cc1cc(C2CCCCC2)n(O)c(=O)c1 [ciclopirox olamine, 6-cyclohexyl-1-hydroxy-4-methyl-2(1H)-pyridone, ethanolamine salt, reference compound]	helps to preserve a normal morphology	significantly increases cell viability						
CCc1cccc(C)c1Nc1c(-c2cc(Br)ccc2O)nc2ncccn12 [compound 414]			Protective effects	Protective effects	significantly increased cell viability	enhances cell viability	helps to preserve a normal morphology	reduce cytotoxicity
CCc1cccc(C)c1Nc1c(-c2cc(Br)ccc2O)nc2nc(C)cc(C)n12 [compound 434]			Protective effects	Protective effects	significantly increased cell viability	enhances cell viability		reduce cytotoxicity

Reference: US12310970B2, “Compounds and methods for treating or preventing anterior segment ocular disorders and/or retinal degenerations” (YALE UNIVERSITY, priority 2018, dated 2025)
